Assay results from PubChem BioAssay AID1963970 (Molecular Pharmacology Branch, DTP, NCI, 2024).

System: 931267-113-T-J1-PDC multicell spheroid viability
Assay: Anticancer human tumor 931267-113-T-J1-PDC patient-derived colon adenocarcinoma cell line growth inhibition [PI3K]
Conditions: for viability, T/C: stronger effect = lower value; active means viability on the fitted dose curve at most 10% of control; inactive means the rest
Source text: Combinatorial screen of targeted agents with the PI3K inhibitors inavolisib, alpelisib, duvelisib, and copanlisib in multi-cell type tumor spheroids
A high-throughput screen of multi-cell type tumor spheroids was designed to identify active combinations of targeted small molecules and PI3K pathway inhibitors. Complex spheroids include a stromal component modeled by human endothelial cells (HUVEC) and fibroblasts modeled by human mesenchymal stem cells (MSCs). The concentration ranges selected for each drug and investigational agent were based upon clinically achievable concentrations if the clinical Cmax of the agent was known.
Compounds. The drugs and investigational agents: inavolisib (NSC800729), alpelisib (NSC765974), duvelisib (NSC772469), copanlisib (NSC816437), ipatasertib (NSC767898), afuresertib (NSC778305), talazoparib (NSC767125), sapanisertib (NSC764658), selumetinib (NSC741078), tovorafenib (DAY101, NSC766906), vemurafenib (NSC761431), ravoxertinib (NSC781343), sotorasib (NSC818433), MRTX1133 (NSC 836407), abemaciclib (NSC 768073), palbociclib (NSC758247), venetoclax (NSC 766270), SY5609 (NSC837396), enzalutamide (NSC755605), and darolutamide (NSC825331), were obtained from the National Cancer Institute (NCI) Developmental Therapeutics Program Chemical Repository. The FDA-approved anticancer drug set is available from the NCI Developmental Therapeutics Program. […] The stock solutions were prepared in dimethyl sulfoxide (DMSO, Sigma-Aldrich, St. Louis, MO, cat. D2650) at 800-fold the tested concentration and stored at -70 degrees C prior to their use. All drugs and investigational agents were tested over a range starting from a high concentration at or near the clinical Cmax and decreasing in half-log increments. If the clinical Cmax for an agent had not been determined, the highest concentration tested was 10 microM.
Cell Culture. All cells were maintained in an incubator at 37 degrees C and 5% CO2 with 95% humidity. The PDC lines were cultured according to standard operating procedures established by the NCI PDMR (https://pdmr.cancer.gov/sops/default.htm). All PDCs were thawed and cultured in Matrigel-coated flasks prepared with a working solution of 1X Ham's F-12 nutrient mix, without supplementation (Invitrogen, Waltham, MA, cat. 11765054), 100 U/mL penicillin-streptomycin (Invitrogen, cat. 15140122), and 2.5% Matrigel (Corning Inc., Corning, NY, cat. 354248) for the first three passages. The 354836-022-R-J1-PDC, 475296-252-R-J1-PDC, and 997726-040-R-J2-PDC lines were cultured in 6A media, which includes advanced DMEM/F-12 (Thermo Fisher Scientific, cat. 12634028), 10 mM HEPES (Thermo Fisher Scientific, cat. 15630080), 1X GlutaMAX supplement (Thermo Fisher Scientific, cat. 35050061), 0.1 mg/mL primocin (InvivoGen, San Diego, CA, cat. ant-pm-2), 10% defined fetal bovine serum, heat inactivated (HyClone Laboratories Inc., Logan, UT, cat. SH30070.03HI), 50% L-WRN conditioned media (ATCC, cat. CRL-3276), 1.25 mM N-Acetyl-L-cysteine (Sigma-Aldrich, cat. A9165), 10 mM nicotinamide (Sigma-Aldrich, cat. N0636), 1X B-27 supplement (Thermo Fisher Scientific, cat. 17504044), 1X N-2 supplement (Thermo Fisher Scientific, cat. 17502048), and 10 microM Y-27632 dihydrochloride (Tocris Bioscience, Bristol, United Kingdom, cat. 1254). The 624824-186-R-J2-PDC line was cultured in 6C/Colon 1B media, which includes all 6A media components plus 50 ng/mL human EGF recombinant protein (Thermo Fisher Scientific, cat. PHG0311). […]

[1] = curve of first compound, second compound 0.0316 µM
[2] = curve of first compound, second compound 0.1 µM
[3] = curve of first compound, second compound 0.316 µM
[4] = curve of first compound, second compound 1 µM
[5] = second compound 0.0316 µM, first compound 0.0316 µM
[6] = second compound 0.0316 µM, first compound 0.1 µM
[7] = second compound 0.1 µM, first compound 0.0316 µM
[8] = second compound 0.1 µM, first compound 0.1 µM
[9] = second compound 0.316 µM, first compound 0.0316 µM
[10] = second compound 0.316 µM, first compound 0.1 µM
[11] = second compound 1 µM, first compound 0.0316 µM
[12] = second compound 1 µM, first compound 0.1 µM
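Further: viability read 7 days after compound addition.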

CC(C)NCC(C(=O)N1CCN(c2ncnc3c2C(C)CC3O)CC1)c1ccc(Cl)cc1 (stereo unspecified) + CC(Nc1ccc2c(c1)OCCn1cc(N3C(=O)OCC3C(F)F)nc1-2)C(N)=O
inactive: viability, T/C (second compound 0.00316 µM, first compound 0.0316 µM) 91% | viability, T/C (second compound 0.00316 µM, first compound 0.1 µM) 90.8% | viability, T/C (second compound 0.00316 µM, first compound 0.316 µM) 92.9% | viability, T/C (second compound 0.00316 µM, first compound 1 µM) 95.5% | viability, T/C (second compound 0.00316 µM, first compound 3.16 µM) 86.8% | viability, T/C (second compound 0.00316 µM, first compound 10 µM) 67.3% | viability, T/C (second compound 0.01 µM, first compound 0.0316 µM) 102% | viability, T/C (second compound 0.01 µM, first compound 0.1 µM) 94.3% | viability, T/C (second compound 0.01 µM, first compound 0.316 µM) 97.2% | viability, T/C (second compound 0.01 µM, first compound 1 µM) 95.2% | viability, T/C (second compound 0.01 µM, first compound 3.16 µM) 83.5% | viability, T/C (second compound 0.01 µM, first compound 10 µM) 69.8% | viability, T/C [5] 103% | viability, T/C [6] 105% | viability, T/C (second compound 0.0316 µM, first compound 0.316 µM) 99.2% | viability, T/C (second compound 0.0316 µM, first compound 1 µM) 94.8% | viability, T/C (second compound 0.0316 µM, first compound 3.16 µM) 96.4% | viability, T/C (second compound 0.0316 µM, first compound 10 µM) 69.9% | viability, T/C [7] 101% | viability, T/C [8] 95.7% | viability, T/C (second compound 0.1 µM, first compound 0.316 µM) 97.9% | viability, T/C (second compound 0.1 µM, first compound 1 µM) 96.2% | viability, T/C (second compound 0.1 µM, first compound 3.16 µM) 84.2% | viability, T/C (second compound 0.1 µM, first compound 10 µM) 64.7% | viability, T/C [9] 85.3% | viability, T/C [10] 84.5% | viability, T/C (second compound 0.316 µM, first compound 0.316 µM) 83.7% | viability, T/C (second compound 0.316 µM, first compound 1 µM) 85.4% | viability, T/C (second compound 0.316 µM, first compound 3.16 µM) 80.5% | viability, T/C (second compound 0.316 µM, first compound 10 µM) 66.7% | viability, T/C [11] 73% | viability, T/C [12] 75.4% | viability, T/C (second compound 1 µM, first compound 0.316 µM) 72.1% | viability, T/C (second compound 1 µM, first compound 1 µM) 76% | viability, T/C (second compound 1 µM, first compound 3.16 µM) 82.9% | viability, T/C (second compound 1 µM, first compound 10 µM) 59.9%
> 10 µM: IC50 (curve of first compound, second compound 0.00316 µM) | IC50 (curve of first compound, second compound 0.01 µM) | IC50 [1] | IC50 [2] | IC50 [3] | IC50 [4]

Cn1ncnc1[C@H]1c2n[nH]c(=O)c3cc(F)cc(c23)N[C@@H]1c1ccc(F)cc1 + CC(Nc1ncnc2nc[nH]c12)c1cc2cccc(Cl)c2c(=O)n1-c1ccccc1
> 0.1 µM: IC50 [1] | IC50 [2] | IC50 [3] | IC50 [4] | IC50 (curve of first compound, second compound 3.16 µM) | IC50 (curve of first compound, second compound 10 µM)
inactive: viability, T/C (second compound 0.0316 µM, first compound 0.000316 µM) 105% | viability, T/C (second compound 0.0316 µM, first compound 0.001 µM) 102% | viability, T/C (second compound 0.0316 µM, first compound 0.00316 µM) 102% | viability, T/C (second compound 0.0316 µM, first compound 0.01 µM) 99.6% | viability, T/C [5] 114% | viability, T/C [6] 103% | viability, T/C (second compound 0.1 µM, first compound 0.000316 µM) 117% | viability, T/C (second compound 0.1 µM, first compound 0.001 µM) 112% | viability, T/C (second compound 0.1 µM, first compound 0.00316 µM) 96% | viability, T/C (second compound 0.1 µM, first compound 0.01 µM) 98.5% | viability, T/C [7] 111% | viability, T/C [8] 95.3% | viability, T/C (second compound 0.316 µM, first compound 0.000316 µM) 110% | viability, T/C (second compound 0.316 µM, first compound 0.001 µM) 113% | viability, T/C (second compound 0.316 µM, first compound 0.00316 µM) 110% | viability, T/C (second compound 0.316 µM, first compound 0.01 µM) 102% | viability, T/C [9] 108% | viability, T/C [10] 106% | viability, T/C (second compound 1 µM, first compound 0.000316 µM) 109% | viability, T/C (second compound 1 µM, first compound 0.001 µM) 108% | viability, T/C (second compound 1 µM, first compound 0.00316 µM) 101% | viability, T/C (second compound 1 µM, first compound 0.01 µM) 100% | viability, T/C [11] 100% | viability, T/C [12] 104% | viability, T/C (second compound 3.16 µM, first compound 0.000316 µM) 104% | viability, T/C (second compound 3.16 µM, first compound 0.001 µM) 101% | viability, T/C (second compound 3.16 µM, first compound 0.00316 µM) 99.4% | viability, T/C (second compound 3.16 µM, first compound 0.01 µM) 97.6% | viability, T/C (second compound 3.16 µM, first compound 0.0316 µM) 112% | viability, T/C (second compound 3.16 µM, first compound 0.1 µM) 93.3% | viability, T/C (second compound 10 µM, first compound 0.000316 µM) 103% | viability, T/C (second compound 10 µM, first compound 0.001 µM) 94.6% | viability, T/C (second compound 10 µM, first compound 0.00316 µM) 87.4% | viability, T/C (second compound 10 µM, first compound 0.01 µM) 98.8% | viability, T/C (second compound 10 µM, first compound 0.0316 µM) 100% | viability, T/C (second compound 10 µM, first compound 0.1 µM) 88.1%

CC(C)NCC(C(=O)N1CCN(c2ncnc3c2C(C)CC3O)CC1)c1ccc(Cl)cc1 (stereo unspecified)
> 10 µM: IC50 (curve of compound)
inactive: viability, T/C (compound 0.0316 µM) 99.5% [middle of 4 runs] | viability, T/C (compound 0.1 µM) 95.4% [middle of 4 runs] | viability, T/C (compound 0.316 µM) 98.5% [middle of 4 runs] | viability, T/C (compound 1 µM) 99.6% [middle of 4 runs] | viability, T/C (compound 3.16 µM) 89.5% [middle of 4 runs] | viability, T/C (compound 10 µM) 80.2% [middle of 4 runs]
